Reference: US9708305B2, “Substituted 1,2,3,4-tetrahydroisoquinoline derivatives for the treatment of hormone-dependent diseases” (UNIVERSITÉ LAVAL, priority 2013, dated 2017)

Assays:
Format in all cases: cell-based
Saos-2 (ER+) cells = experiment: Proliferative activity on Saos-2 (ER+) cells, phenol library; conditions: 1 μM (stated for reference compounds); 7 days; control 100%
Description: Estrogens are known to have a beneficial effect on bones. […] The phenol derivatives 3′-EO-09 to 3′-EO-11 and 3′-EO-14 to 3′-EO-17 were tested on the osteoblast-like cell line Saos-2 to further evaluate their SERM capacity (FIG. 13A).
The osteoblast-like Saos-2 cells were maintained in culture flasks (175 cm^2 growth area, BD Falcon) at 37° C. in a 5% CO2 humidified atmosphere and grown in McCoy's 5A medium supplemented with 10% fetal bovine serum (FBS), penicillin (100 IU/mL) and streptomycin (100 μg/mL). Penicillin/streptomycin mix, L-Glutamine, normal and charcoal-stripped FBS were purchased from Wisent, Inc. (St-Bruno, QC, Canada), phenol-red free McCoy's 5A was purchased from PromoCell (Heidelberg, Germany). Chemicals tested were first dissolved in DMSO and subsequent dilutions were done in the cell culture medium. The final concentration of DMSO in the culture medium was 0.1% or less. For the proliferation assay, the […] FBS in the culture medium was replaced with 10% charcoal-stripped FBS. The cells were seeded in 96-well plates at a density of 10 000 cells/well and allowed to attach 24 h. After 24 h, the phenolic compounds diluted in culture medium were added to the wells and replaced every 2 days for 7 days of treatment. As reported above, MTS was used as an indirect colorimetric measurement of cell proliferation according to the manufacturer's instructions, except the plate were incubated 2 h instead of 4 h.

[1] = tested on: alkaline phosphatase activity in Saos-2 cells; experiment: Alkaline phosphatase assay (Saos-2 cells), phenol library; conditions: 1 nM; control (no treatment) fixed at 100%
Description: We also investigated the effect of selected phenol derivatives on alkaline phosphatase activity in Saos-2 cells (FIG. 13B).
Saos-2 cells were used similarly as reported in the cell proliferation assay. The cells were seeded at a density of 2 000 cells/well and treated for 3 days with each compound to be tested. The alkaline phosphatase (ALP) activity was measured using the Sensolyte® pNPP Alkaline Phosphatase Assay Kit *Colorimetric* (AnaSpec, Freemont, Calif.) following the manufacturer's protocol. Briefly, after three days of treatment, the cells were washed twice with washing buffer (provided with the kit) and lysed with 0.2% Triton X-100. The cell lysates were centrifuged and the supernatants were used to determine ALP activity. The supernatants were deposed in a 96-well plate and incubated for 30 minutes with a p-nitrophenyl phosphate solution (provided with the kit). The absorbance at 405 nm was measured with a Thermo max microplate reader (Molecular Devices, Sunnyvale, Calif.). The control (culture media+DMSO) is set to 100% of alkaline phosphatase activity.

[2] = tested on: alkaline phosphatase (ALP) activity in Saos-2 cells; experiment: Alkaline phosphatase (ALP) activity in Saos-2 cells
Description: ALP is an enzyme that releases inorganic phosphate from different intracellular substrates such as pyrophosphate and pyridoxal 5′-phosphate.^63 The inorganic phosphate is used in the formation of hydroxyapatite crystals which are then inserted in the extracellular protein scaffold to form the solid part of bone tissue.
Saos-2 cells were treated similarly as reported in the cell proliferation assay. The cells were seeded at a density of 2 000 cells/well and were treated with the inhibitors and the reference compounds for 3 days. The alkaline phosphatase (ALP) activity was measured using Sensolyte® pNPP Alkaline Phosphatase Assay Kit *Colorimetric* (AnaSpec, Fremont, Calif.) following the manufacturer's protocol. Briefly, after the 3 days of treatment, the cells were washed twice with washing buffer (provided with the kit) and lysed with 0.2% Triton X-100. The cell lysates were centrifuged and the supernatants were used to determine the ALP activity. The supernatants were deposed in a 96-well plate and incubated 30 min with a p-nitrophenyl phosphate solution (provided with the kit). The absorbance at 405 nm was measured with a Thermo max microplate reader (Molecular Devices, Sunnyvale, Calif.). The control (culture media+DMSO) is set to 100% of alkaline phosphatase activity.

C[C@]12CC[C@@H]3c4ccc(O)cc4CC[C@H]3[C@@H]1CC[C@@H]2O [E2, 17β-estradiol, reference compound] was tested, and the “proliferation of Saos-2 cells” value (Saos-2 (ER+) cells) was 144%, the “ALP activity in Saos-2 cells” value [1] was 148% and the “Bone cells Saos-2 (ER+) SERM effect Alkaline phosphatase activity (%)” value ([2]; 0.1 nM) was 100%. The “stimulation of ALP activity in presence of ICI-164,384 or MPP + PHTPP” value ([2]; 0.1 nM compound, antagonists 1 μM, 3 days) was “completely blocked the stimulation”.
